Reference: ChEMBL document CHEMBL3882727, “Imidazopyridine Kinase Inhibitors” (2008)
pIC50: −log10 of the molar value.

Assays:
[1] = Cytotoxicity against human BC1 cells after 3 days by InCell analyser assay; assay type: functional, cell-based; details: BC1, 72 h
[2] = Cytotoxicity against human BC2 cells after 3 days by InCell analyser assay; assay type: functional, cell-based; details: BC-2, 72 h
[3] = Cytotoxicity against human NALM1 cells after 3 days by InCell analyser assay; assay type: functional, cell-based; details: NALM1, 72 h
[4] = Cytotoxicity against human RD cells after 3 days by InCell analyser assay; assay type: functional, cell-based; details: 72 h
[5] = Cytotoxicity against human RL cells after 3 days by InCell analyser assay; assay type: functional, cell-based; details: 72 h
[6] = Cytotoxicity against human MT3 cells after 3 days by InCell analyser assay; assay type: functional, cell-based; details: MT-3, 72 h
[7] = Cytotoxicity against human GCT cells after 3 days by InCell analyser assay; assay type: functional, cell-based; details: 72 h
[8] = Cytotoxicity against human ES2 cells after 3 days by InCell analyser assay; assay type: functional, cell-based; details: ES-2, 72 h
[9] = Cytotoxicity against human DK-MG cells after 3 days by InCell analyser assay; assay type: functional, cell-based; details: 72 h
[10] = Cytotoxicity against human KLE cells after 3 days by InCell analyser assay; assay type: functional, cell-based; details: 72 h
[11] = Cytotoxicity against HOS cells after 3 days by InCell analyser assay; assay type: functional, cell-based; details: Homo sapiens, 72 h
[12] = Cytotoxicity against human C-4I cells after 3 days by InCell analyser assay; assay type: functional, cell-based; details: 72 h
[13] = Cytotoxicity against human M14 cells after 3 days by InCell analyser assay; assay type: functional, cell-based; details: M14, 72 h
[14] = Cytotoxicity against human U266B1 cells after 3 days by InCell analyser assay; assay type: functional, cell-based; details: U-266, 72 h
[15] = Cytotoxicity against human JAR cells after 3 days by InCell analyser assay; assay type: functional, cell-based; details: 72 h
[16] = Cytotoxicity against human HN5 cells after 3 days by InCell analyser assay; assay type: functional, cell-based; details: HN5, 72 h
[17] = Cytotoxicity against human H4 cells after 3 days by InCell analyser assay; assay type: functional, cell-based; details: H4, 72 h
[18] = Cytotoxicity against human A7 cells after 3 days by InCell analyser assay; assay type: functional, cell-based; details: 72 h
[19] = Cytotoxicity against human Y79 cells after 3 days by InCell analyser assay; assay type: functional, cell-based; details: Y79, 72 h
[20] = Cytotoxicity against human 5637 cells after 3 days by InCell analyser assay; assay type: functional, cell-based; details: Homo sapiens, 5637, 72 h
[21] = Cytotoxicity against human ML2 cells after 3 days by InCell analyser assay; assay type: functional, cell-based; details: ML-2, 72 h
[22] = Cytotoxicity against human EM2 cells after 3 days by InCell analyser assay; assay type: functional, cell-based; details: EM-2, 72 h
[23] = Cytotoxicity against human C3A cells after 3 days by InCell analyser assay; assay type: functional, cell-based; details: 72 h
[24] = Cytotoxicity against human CESS cells after 3 days by InCell analyser assay; assay type: functional, cell-based; details: 72 h
[25] = Cytotoxicity against human SCLC3 cells after 3 days by InCell analyser assay; assay type: functional, cell-based; details: SCLC3, 72 h
[26] = Cytotoxicity against human DB cells after 3 days by InCell analyser assay; assay type: functional, cell-based; details: 72 h
[27] = Cytotoxicity against human MX1 cells after 3 days by InCell analyser assay; assay type: functional, cell-based; details: MX1, 72 h
[28] = Cytotoxicity against human BC3 cells after 3 days by InCell analyser assay; assay type: functional, cell-based; details: BC-3, 72 h
[29] = Cytotoxicity against human AGS cells after 3 days by InCell analyser assay; assay type: functional, cell-based; details: 72 h
[30] = Cytotoxicity against human J82 cells after 3 days by InCell analyser assay; assay type: functional, cell-based; details: J82, 72 h
[31] = Cytotoxicity against human HT3 cells after 3 days by InCell analyser assay; assay type: functional, cell-based; details: HT-3, 72 h
[32] = Cytotoxicity against human MJ cells after 3 days by InCell analyser assay; assay type: functional, cell-based; details: 72 h
[33] = Cytotoxicity against human SR cells after 3 days by InCell analyser assay; assay type: functional, cell-based; details: 72 h
[34] = Cytotoxicity against human T24 cells after 3 days by InCell analyser assay; assay type: functional, cell-based; details: T-24, 72 h
[35] = Cytotoxicity against human SH4 cells after 3 days by InCell analyser assay; assay type: functional, cell-based; details: SH-4, 72 h
[36] = Cytotoxicity against human MC/CAR cells after 3 days by InCell analyser assay; assay type: functional, cell-based; details: 72 h
[37] = molecular target: T1, Insulin-like growth factor 1 receptor (Homo sapiens, UniProt P08069); experiment: Inhibition of IGF1-induced human IGF1R autophosphorylation expressed in mouse NIH-3T3 cells preincubated for 2 hrs followed by IGF-1 induction measured after 15 mins by DELFIA; assay type: cell-based, NIH3T3
[38] = molecular target: T1, Insulin-like growth factor 1 receptor; experiment: Inhibition of human GST-rTEV-tagged IGF1R (957 to 1367 residues) expressed in baculovirus infected insect Sf9 cells assessed as decrease in biotin-aminohexyl-AEEEEYMMMMAKKKK-NH2 phosphorylation after 1 hr by fluorometer
[39] = molecular target: T2, Insulin receptor (Homo sapiens, UniProt P06213); experiment: Inhibition of human GST-rTEV-tagged insulin receptor (979 to 1382 residues) expressed in baculovirus infected insect Sf9 cells assessed as decrease in biotin-aminohexyl-AEEEEYMMMMAKKKK-NH2 phosphorylation after 1 hr by fluorometer
[40] = molecular target: T2, Insulin receptor; experiment: Inhibition of insulin-induced human insulin receptor autophosphorylation expressed in mouse NIH-3T3 cells preincubated for 2 hrs followed by insulin induction measured after 15 mins by DELFIA; assay type: cell-based, NIH3T3
[41] = Cytotoxicity against human COLO205 cells assessed as cell growth inhibition after 72 hrs by Cell Titre Glo assay; assay type: functional, cell-based; details: COLO 205, 72 h
[42] = Cytotoxicity against human NCI-H929 cells assessed as cell growth inhibition after 72 hrs by Cell Titre Glo assay; assay type: functional, cell-based; details: NCI-H929, 72 h
[43] = Toxicity in nude mouse allografted with mouse LISN cells assessed as body weight loss at 50 to 100 mg/kg, qd for 21 days measured during compound dosing; assay type: organism-based; details: 504 h
[44] = Toxicity in nude mouse allografted with mouse LISN cells assessed as body weight loss at 30 mg/kg, qd for 21 days measured during compound dosing relative to control; assay type: organism-based; details: in vivo, 504 h
[45] = Toxicity in nude mouse allografted with mouse LISN cells assessed as body weight loss at 60 mg/kg, qd for 21 days measured during compound dosing relative to control; assay type: organism-based; details: in vivo, 504 h

T2 sequence (P06213 28-758 limits assumed): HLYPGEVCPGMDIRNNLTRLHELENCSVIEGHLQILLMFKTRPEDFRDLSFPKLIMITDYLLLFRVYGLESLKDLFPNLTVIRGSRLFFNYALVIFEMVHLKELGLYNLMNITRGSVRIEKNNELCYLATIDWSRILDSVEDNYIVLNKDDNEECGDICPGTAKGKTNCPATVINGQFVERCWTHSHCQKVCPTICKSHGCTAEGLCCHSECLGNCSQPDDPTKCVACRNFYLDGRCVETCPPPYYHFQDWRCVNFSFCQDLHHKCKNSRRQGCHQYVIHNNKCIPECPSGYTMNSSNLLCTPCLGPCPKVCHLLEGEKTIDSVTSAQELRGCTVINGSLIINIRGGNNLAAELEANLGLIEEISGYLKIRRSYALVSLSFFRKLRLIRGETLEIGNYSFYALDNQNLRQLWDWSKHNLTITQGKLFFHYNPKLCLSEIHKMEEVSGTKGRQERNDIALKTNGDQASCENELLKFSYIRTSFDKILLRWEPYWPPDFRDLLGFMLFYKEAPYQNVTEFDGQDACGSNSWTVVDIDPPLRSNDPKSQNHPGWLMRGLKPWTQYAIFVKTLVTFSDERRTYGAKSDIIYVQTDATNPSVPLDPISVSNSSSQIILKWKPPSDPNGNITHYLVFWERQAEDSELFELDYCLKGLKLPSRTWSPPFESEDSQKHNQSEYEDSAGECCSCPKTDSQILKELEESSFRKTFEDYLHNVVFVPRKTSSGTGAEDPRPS
T2 sequence (P06213 763-1382 limits assumed): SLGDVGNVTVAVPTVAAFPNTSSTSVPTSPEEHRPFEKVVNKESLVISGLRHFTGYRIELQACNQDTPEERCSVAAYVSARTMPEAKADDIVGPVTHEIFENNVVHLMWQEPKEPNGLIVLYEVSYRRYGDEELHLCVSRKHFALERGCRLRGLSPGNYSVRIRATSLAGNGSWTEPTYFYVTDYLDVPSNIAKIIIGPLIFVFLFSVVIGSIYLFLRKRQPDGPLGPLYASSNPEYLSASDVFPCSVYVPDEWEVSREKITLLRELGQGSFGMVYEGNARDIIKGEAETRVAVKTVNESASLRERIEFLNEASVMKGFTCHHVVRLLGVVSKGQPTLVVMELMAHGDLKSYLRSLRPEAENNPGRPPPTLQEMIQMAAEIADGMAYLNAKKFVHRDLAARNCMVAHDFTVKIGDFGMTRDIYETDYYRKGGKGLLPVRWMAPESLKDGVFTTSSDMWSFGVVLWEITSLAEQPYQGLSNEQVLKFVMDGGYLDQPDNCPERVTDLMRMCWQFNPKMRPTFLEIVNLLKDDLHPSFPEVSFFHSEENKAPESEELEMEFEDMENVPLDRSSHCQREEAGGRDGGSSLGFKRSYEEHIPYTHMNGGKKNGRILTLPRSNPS

`COc1cc(N2CCC(N3CCCCC3)CC2)ccc1Nc1nccc(-c2c(-c3cccc(C(=O)Nc4c(F)cccc4F)c3)nc3ccccn23)n1` gave a pIC50 [1] of 5.30 to 6.00, a pIC50 [2] of 5.30 to 6.00 and a pIC50 [3] of 5.30 to 6.00. The pIC50 [4] was < 5.30, the pIC50 [5] was 5.30 to 6.00 and the pIC50 [6] was > 6.00. The pIC50 [7] was 5.30 to 6.00, the pIC50 [8] was 5.30 to 6.00 and the pIC50 [9] was 5.30 to 6.00. For the same molecule, the pIC50 [10] was 5.30 to 6.00, the pIC50 [11] was > 6.00 and the pIC50 [12] was 5.30 to 6.00. It also gave a pIC50 [13] of 5.30 to 6.00, a pIC50 [14] of 5.30 to 6.00 and a pIC50 [15] of 5.30 to 6.00. For the same molecule, the pIC50 [16] was 5.30 to 6.00, the pIC50 [17] was < 5.30 and the pIC50 [18] was 5.30 to 6.00. The pIC50 [19] was < 5.30, the pIC50 [20] was < 5.30 and the pIC50 [21] was < 5.30. The pIC50 [22] was < 5.30, the pIC50 [23] was 5.30 to 6.00 and the pIC50 [24] was < 5.30. It also gave a pIC50 [25] of 5.30 to 6.00, a pIC50 [26] of 5.30 to 6.00 and a pIC50 [27] of 5.30 to 6.00. The pIC50 [28] was 5.30 to 6.00, the pIC50 [29] was 5.30 to 6.00 and the pIC50 [30] was 5.30 to 6.00. The pIC50 [31] was < 5.30, the pIC50 [32] was 5.30 to 6.00 and the pIC50 [33] was 5.30 to 6.00. For the same molecule, the pIC50 [34] was < 5.30, the pIC50 [35] was 5.30 to 6.00 and the pIC50 [36] was 5.30 to 6.00.

For `CCOc1cc(N2CCN(CCS(C)(=O)=O)CC2)c(C)cc1Nc1nccc(-c2c(-c3ccc(OC(C)C)c(C(=O)Nc4c(F)cccc4F)c3)nc3ccccn23)n1`, the pIC50 [37] was > 7.00, the pIC50 [38] was 6.00 to 7.00 and the pIC50 [39] was > 7.00. The pIC50 [40] was > 7.00.

With `CCOc1cc(N2CCC(CCS(C)(=O)=O)CC2)c(C)cc1Nc1nccc(-c2c(-c3ccc(OC)c(C(=O)Nc4c(F)cccc4F)c3)nc3cc(F)ccn23)n1` the pIC50 [38] was > 7.00 and the pIC50 [39] was > 7.00.

With `CCOc1cc(C2CCN(CCS(C)(=O)=O)CC2)ccc1Nc1nccc(-c2c(-c3ccc(OC(C)C)c(C(=O)Nc4c(F)cccc4F)c3)nc3ccccn23)n1` the pIC50 [37] was > 7.00, the pIC50 [38] was 6.00 to 7.00 and the pIC50 [39] was 6.00 to 7.00.

With `CN(C)CCOc1cccc(Nc2nccc(-c3c(-c4cccc(C(=O)Nc5c(F)cc(F)cc5F)c4)nc4ccccn34)n2)c1` the pIC50 [39] was > 7.00.

With `COc1cc(N2CCC(CCS(C)(=O)=O)CC2)c(C)cc1Nc1nccc(-c2c(-c3ccc(OC)c(C(=O)Nc4c(F)cccc4F)c3)nc3cc(F)ccn23)n1` the pIC50 [38] was > 7.00, the pIC50 [39] was > 7.00 and the pIC50 [40] was > 7.00.

With `COc1cc(N2CCC(N3CCN(CCF)CC3)CC2)c(Cl)cc1Nc1nccc(-c2c(-c3cccc(C(=O)Nc4c(F)cccc4F)c3)nc3ccccn23)n1` the pIC50 [41] was 6.00 to 6.60 and the pIC50 [42] was > 6.60.

In the case of `CCOc1cc(N2CCC(CCS(C)(=O)=O)CC2)c(C)cc1Nc1nccc(-c2c(-c3ccc(OC)c(C(=O)Nc4c(F)cccc4F)c3)nc3ccccn23)n1`, the Activity [43] was “Non-Toxic”.

With `CCc1cc(Nc2nccc(-c3c(-c4ccc(OC)c(C(=O)Nc5c(F)cccc5F)c4)nc4ccccn34)n2)c(OC)cc1N1CCC(N2CCN(S(C)(=O)=O)CC2)CC1` the Activity [44] was “Non-Toxic” and the Activity [45] was “Non-Toxic”.

With `COc1cc(N2CCC(N3CCN(S(C)(=O)=O)CC3)CC2)ccc1Nc1nccc(-c2c(-c3ccc(OC)c(C(=O)Nc4c(F)cccc4F)c3)nc3ccccn23)n1` the pIC50 [38] was > 7.00, the pIC50 [39] was > 7.00 and the pIC50 [40] was > 7.00.
